Results published in patent US10800792B2, “Inhibitors of Bruton's tyrosine kinase and method of their use” (JANSSEN PHARMACEUTICA NV, priority 2015, dated 2020).

Target: unphosphorylated-BTK kinase domain (UP-BTK), GST-tagged human BTK (389-659aa) (Homo sapiens (Human), UniProt Q06187)
Assay: BTK kinase Lanthascreen binding assay
Conditions: Lanthascreen tracer competition, 60 minutes incubation; pIC50 = negative log of the IC50 in molar
Summary of the method: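 Lanthascreen competition binding; test compound vs fluorescent tracer on unphosphorylated BTK. Output: pIC50 (−log IC50, M).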

Sequence of unphosphorylated-BTK kinase domain (UP-BTK), GST-tagged human BTK (389-659aa) (Q06187 389-659): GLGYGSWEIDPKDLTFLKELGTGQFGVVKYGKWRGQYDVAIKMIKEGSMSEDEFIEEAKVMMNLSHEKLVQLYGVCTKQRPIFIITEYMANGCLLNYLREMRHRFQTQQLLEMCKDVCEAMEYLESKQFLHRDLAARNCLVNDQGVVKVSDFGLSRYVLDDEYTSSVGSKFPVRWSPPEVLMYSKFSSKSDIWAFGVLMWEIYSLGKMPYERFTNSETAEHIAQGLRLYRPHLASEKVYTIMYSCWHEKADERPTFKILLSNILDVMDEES

BTK_I_binding pIC50 | Structure (SMILES)
<5 | CC(C)(C)OC(=O)N1CCC[C@@H](NC(=O)c2sc3nccc4c3c2NC(=O)N4c2ccc3c(c2)OC(F)(F)O3)C1 [Example 653, (R)-tert-Butyl 3-(5-(2,2-difluorobenzo[d][1,3]dioxol-5-yl)-4-oxo-4,5-dihydro-3H-1-thia-3,5,8-triazaacenaphthylene-2-carboxamido)piperidine-1-carboxylate]
8.0 | C=CC(=O)N1CC[C@@H](O)[C@H](NC(=O)c2sc3nccc4c3c2NC(=O)N4c2ccc(Oc3ccccc3)cc2)C1 [Example 655, N-((3R,4R)-1-Acryloyl-4-hydroxypiperidin-3-yl)-4-oxo-5-(4-phenoxyphenyl)-4,5-dihydro-3H-1-thia-3,5,8-triazaacenaphthylene-2-carboxamide]
6.2 | Cc1nc(Oc2ccccc2)cnc1N1C(=O)Nc2c(C(=O)N[C@@H]3CCCNC3)sc3nccc1c23 [Example 656, (R)-5-(3-Methyl-5-phenoxypyrazin-2-yl)-4-oxo-N-(piperidin-3-yl)-4,5-dihydro-3H-1-thia-3,5,8-triazaacenaphthylene-2-carboxamide]
7.7 | C=CC(=O)N1CCC[C@@H](NC(=O)c2sc3nccc4c3c2NC(=O)N4c2ncc(Oc3ccccc3)nc2C)C1 [Example 657, (R)—N-(1-Acryloylpiperidin-3-yl)-5-(3-methyl-5-phenoxypyrazin-2-yl)-4-oxo-4,5-dihydro-3H-1-thia-3,5,8-triazaacenaphthylene-2-carboxamide]
6.6 | O=C(N[C@@H]1CNCC[C@H]1O)c1sc2nccc3c2c1NC(=O)N3c1ccc(Oc2ccccc2)cc1 [Example 658, N-((3R,4R)-4-Hydroxypiperidin-3-yl)-4-oxo-5-(4-phenoxyphenyl)-4,5-dihydro-3H-1-thia-3,5,8-triazaacenaphthylene-2-carboxamide]
7.8 | C=CC(=O)N1CCC[C@@H](NC(=O)c2sc3nccc4c3c2NC(=O)N4c2ncc(Oc3ccccc3)cn2)C1 [Example 665, (R)—N-(1-Acryloylpiperidin-3-yl)-4-oxo-5-(5-phenoxypyrimidin-2-yl)-4,5-dihydro-3H-1-thia-3,5,8-triazaacenaphthylene-2-carboxamide]
7.9 | C=CC(=O)N1CCC[C@@H](NC(=O)c2sc3nccc4c3c2NC(=O)N4c2cnc(Oc3ccccc3)cc2C)C1 [Example 667, (R)—N-(1-Acryloylpiperidin-3-yl)-5-(4-methyl-6-phenoxypyridin-3-yl)-4-oxo-4,5-dihydro-3H-1-thia-3,5,8-triazaacenaphthylene-2-carboxamide]
8.2 | C=CC(=O)N1CCC[C@@H](NC(=O)c2sc3nccc4c3c2NC(=O)N4c2ccc(Oc3ccccc3)nc2C)C1 [Example 670, (R)—N-(1-Acryloylpiperidin-3-yl)-5-(2-methyl-6-phenoxypyridin-3-yl)-4-oxo-4,5-dihydro-3H-1-thia-3,5,8-triazaacenaphthylene-2-carboxamide]

Structure (SMILES) | BTK_I_binding pIC50
CC(C)(C)OC(=O)N1CCC[C@@H](NC(=O)c2sc3nccc4c3c2NC(=O)N4c2ccc(OC(C)(C)C)cc2)C1 [Example 652, (R)-tert-Butyl 3-(5-(4-(tert-butoxy)phenyl)-4-oxo-4,5-dihydro-3H-1-thia-3,5,8-triazaacenaphthylene-2-carboxamido)piperidine-1-carboxylate] | <5
CC(C)(C)OC(=O)N1CCC[C@@H](NC(=O)c2sc3nccc4c3c2NC(=O)N4c2ccc(OC3CCC3)nc2)C1 [Example 654, (R)-tert-Butyl 3-(5-(6-cyclobutoxypyridin-3-yl)-4-oxo-4,5-dihydro-3H-1-thia-3,5,8-triazaacenaphthylene-2-carboxamido)piperidine-1-carboxylate] | <5
C=CC(=O)N1CCC[C@@H](NC(=O)c2sc3nccc4c3c2NC(=O)N4c2cnc(OC3CCC3)cc2C)C1 [Example 672, (R)—N-(1-Acryloylpiperidin-3-yl)-5-(6-cyclobutoxy-4-methylpyridin-3-yl)-4-oxo-4,5-dihydro-3H-1-thia-3,5,8-triazaacenaphthylene-2-carboxamide] | 7.6
